# US5659041A, “Hydrazino-type radionuclide chelators having an N3 S configuration” (Resolution Pharmaceuticals, Inc., priority 1994, dated 1997)
# Numbered stars: 1 amine (or outer) side, 2 acyl side, 3 side chain; on linkers, the order of the positions; unused ones are H or OH. Square brackets hold non-standard residues; d marks the D form. Peptide text beside a SMILES is read from it. X2 = CN(N[*:1])c1ccc(C(=O)[*:2])cn1; X1 = O=C(CSCN[*:1])[*:2]
# What was measured:
# [1] = In vivo distribution of 99mTc labeled chelators within rats; design: species or system male Wistar rats; details: rat, i.v. tail vein
# Protocol: Distribution within rats of selected chelators and a reference chelator was determined using established protocols. Briefly, male Wistar rats (Charles River, 200 g) were anesthetized with somnitol (40 to 50 mg/kg) and 200 μL of the labeled chelator (ie. 200 μCi) was injected intravenously via the tail vein. Serial whole-body scintigrams were acquired for first 10 minutes. After further images were obtained at 60 and 120 minutes, the rat was killed with anesthesia and samples of organs (blood, heart, lung, liver, spleen, kidney, muscle, GI tract) were weighed and counted in either a well-type gamma counter or in a gamma dose calibrator. Dose calculations were made based On the assumption that rats weighed 200 g and that the blood volume constituted 8% body weight. All results were corrected for the residual dose in the tail.
# [2] = Extent of complexation of 99mTc with chelators (radioactivity of eluted C-18 Sep-Pak fractions); format: physicochemical; details: for Chelator (EtOH-saline eluate), percent of total / Chelator (EtOH-saline eluate), radioactivity / TcO2, percent of total / TcO2, radioactivity / TcO4- (HCl eluate), percent of total / TcO4- (HCl eluate), radioactivity of eluted fraction: Example 2: SnCl2, pH 6, Example 4: sodium dithionite, pH 12-13, 75° C.
# Protocol: The chelator N-(S-benzoylmercaptoacetyl)-glycyl-2-pyridylhydrazide (example 2, 1 mg) was dissolved in EtOH-water and hydrolyzed by heating with NaOH, after which the reaction mixture was neutralized with acetic acid to pH 6. 350 μg hydrolyzed chelator was reacted with 103 MBq TcO4^- and 10 μg SnCl2 at room temperature. […] To achieve adequate separation of the chelator, the solution was then loaded on a C-18 SepLPak column which was eluted with dilute HCI to remove Tc04-. Subsequent elution with 1:1 EtOH-saline removed the chelator while Tc02 remained on the column.
# Another chelator was similarly labeled. Particularly, 300 μg of the hydrolyzed chelator N-(S-benzoylmercaptoacetyl)-glycyl-3-(6-chloropyridazyl)-hydrazide (example 4) was adjusted to pH 12-13 and reduced with 100 μg of sodium dithionite for 10 minutes at 75° C. The resulting mixture was then loaded on a C-18 Sep-Pak column and eluted with dilute HCI followed by EtOH-saline. The extent of complexation of ^99m Tc with chelators was measured by radioactivity of the eluted fractions; results are shown in the table below.
# [3] = tested on: "Tuftsin" receptors on leukocytes; experiment: Binding of TKPPR peptide to Tuftsin receptors on leukocytes
# [4] = Labeling of chelator-conjugate with 99mTc (HPLC radioactivity of fractions); format: physicochemical; details: pertechnetate, stannous gluconate, boiling water bath 12 minutes
# Protocol: The chelator-conjugate of example 11 (200 μL, 1 mg/mL saline) was injected into a 3 mL vacutainer with 100 μL pertechnetate (10 mCi) and 100 μL stannous gluconate (50 μg stannous chloride and 1 mg sodium gluconate). The tube was placed in a boiling water bath for 12 minutes and then filtered through a Watman PVDF syringe filter to collect the labeled conjugate solution which was further diluted with saline to prepare an injectable solution (2 Mbq/mL). The chelator-conjugate was isolated by HPLC (Beckman) from a (20 μL) sample (before dilution) to determine the labeling yield by measuring radioactivity of the fractions. 70.8%, 5.1% and 15.0% of the label was found in each of three fractions eluted for a 90.9% total labeling yield.
# [5] = 200 μCi, organs counted after 120 minutes images
compound,measurement,setting,value
"O=C(CSC(=O)c1ccccc1)NCC(=O)NNc1ccccn1 [Example 2, N-(S-benzoylmercaptoacetyl)-glycyl-2-pyridylhydrazide]",dose in the liver and GI tract,[1]; [5],about 60%
same,dose remaining in the blood,[1]; [5],about 6%
same,"Chelator (EtOH-saline eluate), percent of total",[2],68%
same,"Chelator (EtOH-saline eluate), radioactivity",[2],27.6 MBq
same,"TcO2, percent of total",[2],31%
same,"TcO2, radioactivity",[2],12.5 MBq
same,"TcO4- (HCl eluate), percent of total",[2],1%
same,"TcO4- (HCl eluate), radioactivity of eluted fraction",[2],0.15 MBq
same,activity present as TcO2,"[2]; SnCl2 at room temperature, pH 6, did not change after heating 10 minutes at 80° C.",Approximately half activity was present as TcO2
"O=C(CNC(=O)CSC(=O)c1ccccc1)NCc1ccccn1 [N-(S-benzoylmercaptoacetyl)-glycyl-2-pyridylmethylamide, reference compound]",retention in the blood pool,[1]; reference chelator lacking hydrazide,extensively retained in the blood pool
"COC(=O)CC[C@H](NC(=O)CSC(=O)c1ccccc1)C(=O)NNc1ccc(Cl)nn1 [Example 5, N-(S-benzoylmercaptoacetyl)-L-glutamyl-(gamma-methylester)-3-(6-chloropyridazyl)-hydrazide]",dose localized in the GI tract,[1]; [5],55%
same,dose remaining in the blood,[1]; [5],about 10%
TKPPR,"binding to ""Tuftsin"" receptors on leukocytes",[3],binds particularly well
"COC(=O)CC[C@H](NC(=O)CSC(=O)c1ccccc1)C(=O)NNc1ccccn1 [Example 3, No(S-benzoylmercaptoacetyl)-L-glutamyl-(gamma-methyl ester)-2-pyridylhydrazide]",accumulation in the kidney,"[1]; 200 μCi, compared with the other chelators",greatest accumulation in the kidney
"O=C(CSC(=O)c1ccccc1)NCC(=O)NNc1ccc(Cl)nn1 [Example 4, N-(S-benzoylmercaptoacetyl)-glycyl-3-(6-chloropyridazyl)-hydrazide]",clearance from the blood (and other tissues),[1]; 200 μCi,fastest clearance from the blood and other tissues
same,route of elimination,[1]; 200 μCi,mainly eliminated through the liver and GI tract
same,dose in the liver and GI tract,[1]; [5],About 70%
same,"Chelator (EtOH-saline eluate), percent of total",[2],78%
same,"Chelator (EtOH-saline eluate), radioactivity",[2],14.19 MBq
same,"TcO2, percent of total",[2],14%
same,"TcO2, radioactivity",[2],2.55 MBq
same,"TcO4- (HCl eluate), percent of total",[2],8%
same,"TcO4- (HCl eluate), radioactivity of eluted fraction",[2],1.38 MBq
"CC(=O)NCSCC(=O)N[C@@H](CO)C(=O)NN(C)c1ccc(C(=O)NCC(=O)N[C@H](C(=O)N[C@@H](CCCCN)C(=O)N2CCC[C@H]2C(=O)N2CCC[C@H]2C(=O)N[C@@H](CCCNC(=N)N)C(=O)O)[C@@H](C)O)cn1 [Example 11, S-Acm-Mercaptoacetyl-Ser-N-methylhydrazino nicotinic acid- Gly--Thr--Lys--Pro--Pro--Arg] (Ac-[X1]S[X2]GTKPPR-OH)",total labeling yield,[4],90.9%
